Consider 7 molecules from US20100193777A1, “METHOD OF PRODUCING A DESUBSTITUTED COMPOUND, ORGANIC SEMICONDUCTOR FILM AND METHOD OF PRODUCING THE SAME” (FUJIFILM Corporation, priority 2007, published 2010).

Holding throughout (format): physicochemical
A short description of data set [1]: Light resistance test of dye films. The settings on record: absorbance at maximum absorption wavelength, 48 h light resistance test. The method, then:
The above-described thin films 1 to 4 were each stored for 24 hours under the conditions of 23° C. and 50% RH. Thereafter, these thin films were each subjected to a light resistance test using a merry-go-round type apparatus for testing of light resistance (Cell Testing Apparatus III, trade name, manufactured by Eagle Engineering Co., Ltd., with a filter WG 320, trade name, manufactured by Schott AG). Absorption spectra of the dye films just before the light resistance test and the dye films after the light resistance test for 48 hours were measured using UV-1600 PC (trade name, manufactured by Shimadzu Corporation). A change of absorbance at the maximum absorption wavelength was read from each absorption spectrum.

Data set [2] in a line: Solubility in a solvent (chloroform or water). The settings on record: for solubility in water after heating: after heated at 250° C. On the procedure: In the first embodiment of the present invention, the term “solvent-soluble (being soluble in a solvent)” means to show a solubility of 0.1% by mass or more, more preferably 0.5% by mass or more, and further preferably 1% by mass or more, with respect to a solvent in interest when the solvent to which a compound in interest is added is heated under reflux and then cooled down to room temperature. Further, the term “solvent-insolubilization (to make a compound insoluble in a solvent)” means to reduce the solubility by one digit figure or more than the solvent-soluble state. Specifically, with respect to a solvent, when the solvent is heated under reflux and then cooled down to room temperature, it is preferable to reduce from the solubility of 0.1% by mass or more (solvent-soluble) to the solubility of 0.01% by mass or less, further preferably from the solubility of 0.5% by mass or more (solvent-soluble) to the solubility of 0.05% by mass or less, and especially preferably from the solubility of 1% by mass or more (solvent-soluble) to the solubility of less than 0.1% by mass. Further, the term “solvent-insoluble (being insoluble in a solvent)” means to show solubility of less than 0.1% by mass, preferably 0.05% by mass or less, and further preferably 0.01% by mass or less, with respect to a solvent in interest when the solvent to which a compound in interest is added is heated under reflux and then cooled down to room temperature.
There is no particular restriction in the kind of solvent when degrees of the above-described “solvent-soluble” and “solvent-insoluble” are defined. Accordingly, both “solvent-soluble” and “solvent-insoluble” may be defined in terms of solvent and temperature each of which is actually used. Alternatively, for example, these properties may be specified as solubility (25° C.) with respect to water (distilled water). However, the solvent used in the first embodiment of the present invention is not limited by the above.

A short description of data set [3]: TG/DTA thermal analysis (rate of decrease in mass on heating). The method, then:
The thermal analysis (TG/DTA measurement) of the thus-produced Exemplified compound (1) was conducted. The TG/DTA measurement was conducted at the rate of temperature increase of 10° C./min in a range of 30° C. to 550° C. under a current of nitrogen gas (flow rate: 200 ml/min) using EXSTAR 6000 (trade name, manufactured by Seiko Instruments Inc.), to determine a rate of decrease in mass. FIG. 1 is a graph showing TG/DTA measurement results of the Exemplified compound (1). Herein, in each of Examples and Comparative Examples described below, the measurement of TG was conducted using the same apparatus and under the same conditions as described above.
In FIG. 1, the uppermost curve indicates the change of mass with respect to temperature (TG.). The bottom curve indicates the heat going in and out with respect to temperature (enthalpy change) (DTA). The middle curve indicates the amount of change of TG (differential value) per time (DTG).

On to `CC(C)(C)OC(=O)N1C(=O)C2=C(c3ccccc3)N(C(=O)OC(C)(C)C)C(=O)C2=C1c1ccccc1` [Compound 1 for comparison], for which the results for the “Residual rate after 48 hours” value in data set [1] (dye film after heating) and in data set [1] (dye film before heating) were 91% and 1.9%, respectively.
For the molecule `[Cu+2].c1ccc2c(c1)-c1nc-2nc2[n-]c(nc3nc(nc4[n-]c(n1)c1ccccc41)-c1ccccc1-3)c1ccccc21` [cupper phthalocyanine], the “solubility in a solvent such as chloroform” value (shortened to “solubility in a solvent such”) in data set [2] is listed as “so low that a film was not formed”.
Take `c1ccc2c(c1)-c1nc-2nc2[nH]c(nc3nc(nc4[nH]c(n1)c1ccccc41)-c1ccccc1-3)c1ccccc21` [metal-free phthalocyanine]: in data set [2], the “solubility in a solvent such” value is listed as “so low that a film was not formed” and the solubility in water result is “so low that a film was not formed”.
As to `[Zn+2].c1ccc2c(c1)-c1nc-2nc2[n-]c(nc3nc([n-]c4nc(n1)-c1ccccc1-4)-c1ccccc1-3)c1ccccc21` [zinc phthalocyanine], in data set [2], the “solubility in a solvent such” value is recorded as “so low that a film was not formed” and the solubility in water entry is “so low that a film was not formed”.
“copper phthalocyanine-tetrasulfonic acid tetrasodium salt”: the solubility in water result in data set [2] is listed as “soluble”. Also, the “temperature of desubstitution of the substituent” value in data set [3] (from TG and MS of heated residue) is “higher than 400 °C”. The “reduction in weight in TG on heating” value in data set [3] (heated up to 400° C., after initial loss of solvent or water) was “did not cause any reduction in weight”.
For “metal-free phthalocyanine-tetrasulfonic acid [Exemplified compound (54)]”, in data set [2], the solubility in water result is on record as “soluble” and the “solubility in water after heating” value is listed as “soluble”.
As for “zinc phthalocyanine-tetrasulfonic acid [Exemplified compound (53)]”, in data set [2], the solubility in water entry is on record as “soluble” and the “solubility in water after heating” value was “soluble”.
